Data on 13 compounds can be found in patent US9580449B2, “Compositions and methods for the production of pyrimidine and pyridine compounds with BTK inhibitory activity” (Merck Patent GmbH, priority 2011, dated 2017).

A value given as a limit tells only on which side of the number the result lay.

One test addresses full-length human BTK (Homo sapiens (Human), UniProt Q06187). The test is described as follows: BTK IC50 enzyme assay (microfluidic off-chip mobility shift kinase assay). In kind it is biochemical. Conditions: incubated for 90 min. at 27 C; read-out: Time Dependent BTK Enzyme Assay IC50. In short, it runs like this:
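Read-out separates phosphorylated peptide product from substrate by charge/mass in a mobility shift format with full-length human BTK.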

In the next test the test system is PBMC. Kind of test: Time Dependent PBMC IC50 assay. In kind it is cell-based. As for the experimental part:
Compounds described by embodiments of the present invention were assayed using a time dependent PMBC assay.

Chain of full-length human BTK (Q06187 whole entry): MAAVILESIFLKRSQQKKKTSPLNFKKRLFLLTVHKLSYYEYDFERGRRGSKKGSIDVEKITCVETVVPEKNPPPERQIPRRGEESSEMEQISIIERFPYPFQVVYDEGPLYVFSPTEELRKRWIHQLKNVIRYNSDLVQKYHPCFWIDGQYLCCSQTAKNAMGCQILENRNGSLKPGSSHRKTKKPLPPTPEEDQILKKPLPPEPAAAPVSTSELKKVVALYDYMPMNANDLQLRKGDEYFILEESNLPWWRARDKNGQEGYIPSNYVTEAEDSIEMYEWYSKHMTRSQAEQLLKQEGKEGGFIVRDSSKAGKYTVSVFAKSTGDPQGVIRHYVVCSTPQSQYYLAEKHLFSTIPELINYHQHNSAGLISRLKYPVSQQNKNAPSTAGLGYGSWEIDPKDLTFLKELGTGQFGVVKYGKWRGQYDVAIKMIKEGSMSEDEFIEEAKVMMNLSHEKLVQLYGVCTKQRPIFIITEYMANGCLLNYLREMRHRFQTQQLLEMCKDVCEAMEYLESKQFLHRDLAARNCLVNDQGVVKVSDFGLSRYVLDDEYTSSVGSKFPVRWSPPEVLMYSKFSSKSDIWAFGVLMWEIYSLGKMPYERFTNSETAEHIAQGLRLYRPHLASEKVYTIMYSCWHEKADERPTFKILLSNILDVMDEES

The term IC50 denotes the concentration that inhibits the measured activity by half. For the compound `C#CC(=O)N[C@@H]1CCC[C@H](Nc2ncnc(N)c2-c2ccc(Oc3ccccc3)cc2)C1` (relative stereo) [A64, N-(cis-3-((6-amino-5-(4-phenoxyphenyl)pyrimidin-4-yl)amino)cyclohexyl)propiolamide], the IC50 is less than 0.1 µM at full-length human BTK and less than 1 µM with PBMC.

Take `C=CC(=O)N1C[C@H](Nc2ncnc(N)c2-c2ccc(Oc3ccccc3)cc2)[C@@H](O)C1` (relative stereo) [A75, 1-(trans-3-((6-amino-5-(4-phenoxyphenyl)pyrimidin-4-yl)amino)-4-hydroxypyrrolidin-1-yl)prop-2-en-1-one]: the IC50 was less than 0.1 µM on full-length human BTK and less than 1 µM with PBMC. The matching figures for `C=CC(=O)N1CCC(COc2ncncc2-c2ccc(Oc3ccccc3)cc2)CC1` [A6, 1-(4-(((5-(4-phenoxyphenyl)pyrimidin-4-yl)oxy)methyl)piperidin-1-yl)prop-2-en-1-one]: less than 0.1 µM and less than 1 µM. In the same order, the values of `C=CC(=O)N1CCCCC(Nc2ncnc(N)c2-c2ccc(Oc3ccccc3)cc2)C1` (stereo not drawn) [A52, 1-(3-((6-amino-5-(4-phenoxyphenyl)pyrimidin-4-yl)amino)azepan-1-yl)prop-2-en-1-one] are less than 0.1 µM and less than 1 µM. Turning to `C=CC(=O)Nc1cccc(Oc2ncnc(N)c2-c2cnn(Cc3cccc(F)c3)c2)c1` [A67, N-(3-((6-amino-5-(1-(3-fluorobenzyl)-1H-pyrazol-4-yl)pyrimidin-4-yl)oxy)phenyl)acrylamide], the IC50 on full-length human BTK was less than 0.1 µM; in the test on PBMC, less than 1 µM. Take `C=CC(=O)Nc1cccc(Nc2ncnc(N)c2-c2cnn(Cc3ccccc3)c2)c1` [A70, N-(3-((6-amino-5-(1-benzyl-1H-pyrazol-4-yl)pyrimidin-4-yl)amino)phenyl)acrylamide]: the values for the IC50 at full-length human BTK and in the test with PBMC were less than 0.1 µM and less than 1 µM, respectively. The matching figures for `CN(C)C/C=C/C(=O)N1CC2(CC(Oc3ncnc(N)c3-c3ccc(Oc4ccccc4)cc3)C2)C1` [A105, (E)-1-(6-((6-amino-5-(4-phenoxyphenyl)pyrimidin-4-yl)oxy)-2-azaspiro[3.3]heptan-2-yl)-4-(dimethylamino)but-2-en-1-one]: less than 0.1 µM and less than 1 µM. For `C=CC(=O)N1CC2(CC(Oc3ncnc(N)c3-c3cnn(Cc4ccccc4)c3)C2)C1` [A106, 1-(6-((6-amino-5-(1-benzyl-1H-pyrazol-4-yl)pyrimidin-4-yl)oxy)-2-azaspiro[3.3]heptan-2-yl)prop-2-en-1-one], the IC50 on full-length human BTK is less than 0.1 µM; in the test with PBMC, greater than 1 µM. In the same order, the values of `C=CC(=O)N1CCC2(CC(Nc3ncnc(N)c3-c3ccc(Oc4ccccc4)cc3)C2)C1` (stereo not drawn) [A113, 1-(2-((6-amino-5-(4-phenoxyphenyl)pyrimidin-4-yl)amino)-6-azaspiro[3.4]octan-6-yl)prop-2-en-1-one] are less than 0.1 µM and less than 1 µM. Regarding `C=CC(=O)N1CC2(CC(Oc3ncnc(N)c3-c3ccc(Oc4ccncc4)cc3)C2)C1` [A114, 1-(6-((6-amino-5-(4-(pyridin-4-yloxy)phenyl)pyrimidin-4-yl)oxy)-2-azaspiro[3.3]heptan-2-yl)prop-2-en-1-one], the results for the IC50 on full-length human BTK and with PBMC were less than 0.1 µM and greater than 1 µM, respectively. For the compound `C#CC(=O)N1CCC2(CC(Nc3ncnc(N)c3-c3ccc(Oc4ccccc4)cc3)C2)C1` (stereo not drawn) [A115, 1-(2-((6-amino-5-(4-phenoxyphenyl)pyrimidin-4-yl)amino)-6-azaspiro[3.4]octan-6-yl)prop-2-yn-1-one], the results for the concentration for half-maximal inhibition (IC50) at full-length human BTK and in the test on PBMC were less than 0.1 µM and greater than 1 µM, respectively. In the case of `C=CC(=O)N1CCC(CNc2ncnc(N)c2-c2ccc(Oc3ccccc3)cc2)C1` (stereo not drawn) [A262, 1-(3-(((6-amino-5-(4-phenoxyphenyl)pyrimidin-4-yl)amino)methyl)pyrrolidin-1-yl)prop-2-en-1-one], in the test on PBMC, the 50% inhibitory concentration (IC50) is less than 1 µM.

Consider `C=CC(=O)N[C@H]1CC[C@@H](Nc2ncnc(N)c2-c2ccc(Oc3ccccc3)cc2)CC1` [A266, N-((1s,4s)-4-((6-amino-5-(4-phenoxyphenyl)pyrimidin-4-yl)amino)cyclohexyl)acrylamide], for which the IC50 in the test with PBMC is less than 1 µM.
